In general, IC50 refers to the midpoint of a concentration-inhibition curve.

The target of assay [1] is T1, Vasoactive intestinal polypeptide receptor 1 (Homo sapiens, UniProt P32241). Also: in other assays of this panel Not Active means under 50% inhibition at 10 µM.
T1 sequence (P32241 whole entry): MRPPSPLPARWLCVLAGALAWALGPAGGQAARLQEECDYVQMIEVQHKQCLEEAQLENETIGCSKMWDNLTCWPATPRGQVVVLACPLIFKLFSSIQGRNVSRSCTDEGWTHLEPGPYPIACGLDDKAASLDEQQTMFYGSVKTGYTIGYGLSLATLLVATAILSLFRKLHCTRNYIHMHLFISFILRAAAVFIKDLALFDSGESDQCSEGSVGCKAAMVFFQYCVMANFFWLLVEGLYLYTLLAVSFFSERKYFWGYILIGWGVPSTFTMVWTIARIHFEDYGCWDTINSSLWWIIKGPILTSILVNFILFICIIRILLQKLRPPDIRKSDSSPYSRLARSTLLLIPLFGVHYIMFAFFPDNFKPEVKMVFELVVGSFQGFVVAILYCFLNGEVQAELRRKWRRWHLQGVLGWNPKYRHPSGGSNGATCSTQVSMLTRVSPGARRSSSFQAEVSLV
The class given is cell membranes, Membrane. Particulars: ht-29.

A short description of assay [2]: DRUGMATRIX: Serotonin (5-Hydroxytryptamine) 5-HT3 radioligand binding (ligand: [3H] GR-65630). The class given is cell membranes, Membrane. Particulars: hek293; Not Active = under 50% inhibition at 10 µM.
For assay [3], the target named is T2, Polyunsaturated fatty acid lipoxygenase ALOX15 (Oryctolagus cuniculus, UniProt P12530).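 Also: inhibition of 15-lipoxygenase enzyme activity measured with linoleic acid as the substrate; in other assays of this panel Not Active means under 50% inhibition at 10 µM.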
T2 sequence (P12530 whole entry): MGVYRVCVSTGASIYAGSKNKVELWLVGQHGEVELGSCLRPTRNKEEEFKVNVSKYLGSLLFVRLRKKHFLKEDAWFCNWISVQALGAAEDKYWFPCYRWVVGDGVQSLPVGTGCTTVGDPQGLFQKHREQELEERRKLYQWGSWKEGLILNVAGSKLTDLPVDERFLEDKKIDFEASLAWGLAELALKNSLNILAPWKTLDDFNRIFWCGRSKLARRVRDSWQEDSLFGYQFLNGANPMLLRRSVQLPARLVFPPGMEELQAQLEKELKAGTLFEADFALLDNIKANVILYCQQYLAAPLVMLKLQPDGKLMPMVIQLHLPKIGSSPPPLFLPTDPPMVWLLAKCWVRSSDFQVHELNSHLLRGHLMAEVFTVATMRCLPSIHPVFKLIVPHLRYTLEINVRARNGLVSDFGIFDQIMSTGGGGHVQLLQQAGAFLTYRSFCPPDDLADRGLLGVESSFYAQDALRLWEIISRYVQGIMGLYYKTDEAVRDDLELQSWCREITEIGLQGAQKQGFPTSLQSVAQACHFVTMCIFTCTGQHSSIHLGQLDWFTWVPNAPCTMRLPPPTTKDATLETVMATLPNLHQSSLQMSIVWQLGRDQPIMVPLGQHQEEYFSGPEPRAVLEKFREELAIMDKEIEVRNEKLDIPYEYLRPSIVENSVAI
Description: biochemical. The class given is tissue-based, Reticulocytes. Particulars: reticulocytes.

The target in another assay is Melanocortin receptor 3 (Homo sapiens, UniProt P41968). The class given is cell membranes, HEK293, Membrane. Particulars: hek293. Also: in other assays of this panel Not Active means under 50% inhibition at 10 µM.
Chain of Melanocortin receptor 3 (P41968 whole entry): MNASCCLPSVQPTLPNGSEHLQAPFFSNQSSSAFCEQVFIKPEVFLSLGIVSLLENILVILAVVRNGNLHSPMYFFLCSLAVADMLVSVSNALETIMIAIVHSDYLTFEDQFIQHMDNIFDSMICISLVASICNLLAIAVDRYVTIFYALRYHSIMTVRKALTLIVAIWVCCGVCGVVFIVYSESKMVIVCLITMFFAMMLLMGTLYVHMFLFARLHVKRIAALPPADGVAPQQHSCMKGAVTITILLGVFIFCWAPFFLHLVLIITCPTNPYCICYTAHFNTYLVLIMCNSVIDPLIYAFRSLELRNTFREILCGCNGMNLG
Assay [4] deals with Protein kinase C alpha type (Homo sapiens, UniProt P17252). The class given is cell-based. Particulars: sf9.
Assay [5] has as its target T3, Amine oxidase [flavin-containing] A (Homo sapiens, UniProt P21397).
T3 sequence (P21397 whole entry): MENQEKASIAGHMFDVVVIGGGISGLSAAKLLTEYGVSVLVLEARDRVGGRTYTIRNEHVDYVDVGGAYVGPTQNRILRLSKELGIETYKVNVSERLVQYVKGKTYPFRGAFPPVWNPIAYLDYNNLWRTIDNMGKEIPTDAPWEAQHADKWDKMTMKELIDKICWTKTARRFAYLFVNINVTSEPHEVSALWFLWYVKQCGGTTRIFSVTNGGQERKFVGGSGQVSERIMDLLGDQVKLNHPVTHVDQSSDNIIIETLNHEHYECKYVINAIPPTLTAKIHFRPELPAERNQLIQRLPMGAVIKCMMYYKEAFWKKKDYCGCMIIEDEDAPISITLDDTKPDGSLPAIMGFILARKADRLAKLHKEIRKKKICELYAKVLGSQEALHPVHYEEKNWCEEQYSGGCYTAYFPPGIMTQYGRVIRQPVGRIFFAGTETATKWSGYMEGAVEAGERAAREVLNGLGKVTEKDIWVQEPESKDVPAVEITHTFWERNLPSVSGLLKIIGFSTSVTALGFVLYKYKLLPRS
Description: DRUGMATRIX: Monoamine Oxidase MAO-A enzyme inhibition (substrate: Kynuramine). Particulars: bti-tn-5b1-4; Not Active = under 50% inhibition at 10 µM. Also on record: species or system BTI-TN-5B1-4.

Assay [6] deals with Prostaglandin G/H synthase 1 (Homo sapiens, UniProt P23219). Description: biochemical. The class given is tissue-based, Platelet.
Chain of Prostaglandin G/H synthase 1 (P23219 whole entry): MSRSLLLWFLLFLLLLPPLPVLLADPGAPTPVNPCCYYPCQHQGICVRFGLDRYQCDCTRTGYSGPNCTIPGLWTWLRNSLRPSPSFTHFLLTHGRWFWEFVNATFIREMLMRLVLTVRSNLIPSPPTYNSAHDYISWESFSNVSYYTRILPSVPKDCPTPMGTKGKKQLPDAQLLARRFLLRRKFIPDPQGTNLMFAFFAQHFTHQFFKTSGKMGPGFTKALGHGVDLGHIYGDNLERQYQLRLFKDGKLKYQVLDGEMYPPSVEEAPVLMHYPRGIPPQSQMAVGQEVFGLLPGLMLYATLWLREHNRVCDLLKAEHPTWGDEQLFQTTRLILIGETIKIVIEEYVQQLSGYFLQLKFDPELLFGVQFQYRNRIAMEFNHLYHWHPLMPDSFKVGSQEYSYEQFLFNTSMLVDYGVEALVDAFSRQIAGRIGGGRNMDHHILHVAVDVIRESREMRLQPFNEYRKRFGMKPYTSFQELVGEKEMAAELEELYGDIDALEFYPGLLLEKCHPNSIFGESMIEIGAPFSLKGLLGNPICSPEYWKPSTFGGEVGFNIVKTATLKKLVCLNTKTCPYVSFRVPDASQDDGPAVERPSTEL
The next assay deals with T4, Thromboxane-A synthase (Homo sapiens, UniProt P24557).
T4 sequence (P24557 whole entry): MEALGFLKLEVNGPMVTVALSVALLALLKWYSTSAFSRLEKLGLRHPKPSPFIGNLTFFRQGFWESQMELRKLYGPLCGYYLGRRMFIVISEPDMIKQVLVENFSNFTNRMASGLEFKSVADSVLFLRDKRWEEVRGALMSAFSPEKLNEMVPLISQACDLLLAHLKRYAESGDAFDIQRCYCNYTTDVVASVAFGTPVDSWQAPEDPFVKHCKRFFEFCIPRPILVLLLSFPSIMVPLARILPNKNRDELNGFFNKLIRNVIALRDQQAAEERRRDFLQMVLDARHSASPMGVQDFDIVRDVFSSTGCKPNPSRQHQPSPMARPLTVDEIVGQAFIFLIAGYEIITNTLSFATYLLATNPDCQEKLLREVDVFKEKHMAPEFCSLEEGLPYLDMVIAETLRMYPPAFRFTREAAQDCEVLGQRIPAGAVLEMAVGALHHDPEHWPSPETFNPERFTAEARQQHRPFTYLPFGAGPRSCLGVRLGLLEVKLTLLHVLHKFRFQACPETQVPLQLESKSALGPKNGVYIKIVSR
In words: biochemical. The class given is tissue-based, Platelet.

SMILES strings stand for the structures.

Take `Cc1c(N)nc([C@H](CC(N)=O)NC[C@H](N)C(N)=O)nc1C(=O)N[C@H](C(=O)N[C@H](C)[C@@H](O)[C@H](C)C(=O)N[C@H](C(=O)NCCc1nc(-c2nc(C(=O)NCCC[S+](C)C)cs2)cs1)[C@@H](C)O)[C@@H](O[C@@H]1O[C@@H](CO)[C@@H](O)[C@H](O)[C@@H]1O[C@H]1O[C@H](CO)[C@@H](O)[C@H](OC(N)=O)[C@@H]1O)c1c[nH]cn1.[Br-]` [BLEOMYCIN A2]: the IC50 result (in assay [1]; in assay [2]; in assay [3]; at Melanocortin receptor 3; in assay [4]; in assay [5]) was “Not Active” throughout. Besides, the IC50 result (in assay [6] (platelet); at Thromboxane-A synthase (platelet)) was “Not Active” each time. In assay [2], the Ki result was “Not Active”.
In the case of `OC[C@H]1O[C@@H]2O[C@H]3[C@H](O)[C@@H](O)[C@@H](O[C@H]4[C@H](O)[C@@H](O)[C@@H](O[C@H]5[C@H](O)[C@@H](O)[C@@H](O[C@H]6[C@H](O)[C@@H](O)[C@@H](O[C@H]7[C@H](O)[C@@H](O)[C@@H](O[C@H]1[C@H](O)[C@H]2O)O[C@@H]7CO)O[C@@H]6CO)O[C@@H]5CO)O[C@@H]4CO)O[C@@H]3CO` [ALFADEX], the IC50 entry (in assay [1]; in assay [2]; in assay [3]; against Melanocortin receptor 3; in assay [4]; in assay [5]) was “Not Active” throughout. Further, the IC50 result (in assay [6] (platelet); against Thromboxane-A synthase (platelet)) was “Not Active” each time. Also, the Ki result in assay [2] is reported as “Not Active”.
On to `O=C(O)CNCP(=O)(O)O` [GLYPHOSATE], for which the IC50 entry (in assay [1]; in assay [2]; in assay [3]; against Melanocortin receptor 3; in assay [4]; in assay [5]) was “Not Active” throughout. Further, the IC50 entry (in assay [6] (platelet); against Thromboxane-A synthase (platelet)) was “Not Active” throughout. In addition, the Ki result in assay [2] is listed as “Not Active”.
Consider `O=C(Nc1ccc(Cl)c(Cl)c1)c1cc(Cl)cc(Cl)c1O` [3,3',4',5-TETRACHLOROSALICYLANILIDE], for which the IC50 result (in assay [1]; in assay [2]; in assay [3]; on Melanocortin receptor 3; in assay [4]; in assay [5]) was “Not Active” throughout. The IC50 turned out to be 666 nM in assay [6] (read-out: IC50) and 4930 nM at Thromboxane-A synthase (read-out: IC50). Further, in assay [2], the Ki entry was “Not Active”.
`COC(=O)Nc1nc2ccc(Sc3ccccc3)cc2[nH]1` [FENBENDAZOLE]: the IC50 result (in assay [1]; in assay [2]; in assay [3]; at Melanocortin receptor 3; in assay [4]; in assay [5]) was “Not Active” throughout. The IC50 entry (in assay [6] (platelet); on Thromboxane-A synthase (platelet)) was “Not Active” each time. Further, the Ki entry in assay [2] is “Not Active”.
On to `Nc1ccc(C(=O)O)c(O)c1` [AMINOSALICYLIC ACID], for which the IC50 result (in assay [1]; in assay [2]; in assay [3]; at Melanocortin receptor 3; in assay [4]; in assay [5]) was “Not Active” each time. Besides, the IC50 result (in assay [6] (platelet); on Thromboxane-A synthase (platelet)) was “Not Active” throughout. In assay [2], the Ki entry is “Not Active”.
As for `COC(=O)C[C@](O)(CCC(C)(C)O)C(=O)O[C@@H]1C(OC)=C[C@]23CCCN2CCc2cc4c(cc2[C@H]13)OCO4` [HARRINGTONINE], the IC50 entry (in assay [1]; in assay [2]; in assay [3]; at Melanocortin receptor 3; in assay [4]; in assay [5]) was “Not Active” throughout. Also, the IC50 entry (in assay [6] (platelet); at Thromboxane-A synthase (platelet)) was “Not Active” throughout. In addition, the Ki result in assay [2] was “Not Active”.
`COc1cc(NC(C)CCCN)c2ncccc2c1` (centres undefined) [PRIMAQUINE]: the IC50 entry (in assay [1]; in assay [2]; in assay [3]; on Melanocortin receptor 3; in assay [4]; in assay [5]) was “Not Active” each time. In addition, the half-inhibitory concentration (IC50) result (in assay [6] (platelet); on Thromboxane-A synthase (platelet)) was “Not Active” each time. The Ki result in assay [2] was “Not Active”.
Consider `OC[C@H]1O[C@@H]2O[C@H]3[C@H](O)[C@@H](O)[C@@H](O[C@H]4[C@H](O)[C@@H](O)[C@@H](O[C@H]5[C@H](O)[C@@H](O)[C@@H](O[C@H]6[C@H](O)[C@@H](O)[C@@H](O[C@H]7[C@H](O)[C@@H](O)[C@@H](O[C@H]8[C@H](O)[C@@H](O)[C@@H](O[C@H]1[C@H](O)[C@H]2O)O[C@@H]8CO)O[C@@H]7CO)O[C@@H]6CO)O[C@@H]5CO)O[C@@H]4CO)O[C@@H]3CO` [BETADEX], for which the IC50 result (in assay [1]; in assay [2]; in assay [3]; against Melanocortin receptor 3; in assay [4]; in assay [5]) was “Not Active” throughout. The IC50 entry (in assay [6] (platelet); against Thromboxane-A synthase (platelet)) was “Not Active” in each case. In addition, in assay [2], the Ki result is given as “Not Active”.
Turning to `COc1cc([C@@H]2c3cc4c(cc3[C@H](O)[C@H]3COC(=O)[C@H]23)OCO4)cc(OC)c1OC` [PODOFILOX], the IC50 result (in assay [1]; in assay [2]; in assay [3]; on Melanocortin receptor 3; in assay [4]; in assay [5]) was “Not Active” each time. Also, the IC50 result (in assay [6] (platelet); at Thromboxane-A synthase (platelet)) was “Not Active” throughout. Also, the Ki result in assay [2] is recorded as “Not Active”.
As for `C[C@H]1C[C@H]2[C@@H]3CCC4=CC(=O)C=C[C@]4(C)[C@@]3(F)[C@@H](O)C[C@]2(C)[C@@]1(O)C(=O)CO` [BETAMETHASONE], the IC50 result (in assay [1]; in assay [2]; in assay [3]; on Melanocortin receptor 3; in assay [4]; in assay [5]) was “Not Active” throughout. Also, the IC50 result (in assay [6] (platelet); on Thromboxane-A synthase (platelet)) was “Not Active” throughout. Also, the Ki result in assay [2] was “Not Active”.

Values taken from ChEMBL document CHEMBL1909046, “DrugMatrix in vitro pharmacology data”.
